Experimental data taken from patent US20260103471A1, “CYCLIC UREA THIAZOLYL COMPOUNDS FOR TREATMENT OF HSV” (Assembly Biosciences, Inc., priority 2022, published 2026).

Test system: HSV-2 G strain
Experiment: HSV-2 Antiviral Assay (Vero cells, cell viability)
Type: cell-based
Details: Vero cells, 160 TCID50 HSV-2 G strain, 5 days, cell viability
Procedure: Vero cells were cultured in Dulbecco's Modified Eagle Medium (DMVEM) supplemented with […] and 100 units/mL penicillin and streptomycin. The cells were passaged 2-3 times per week to maintain sub-confluent densities.
Vero cells were seeded into 96-well plates at a density of 1.0×10^4 cells per well and allowed to attach overnight. Following attachment, the media was replaced with 50 μL of infection medium (DMEM supplemented with 2% fetal bovine serum and 100 units/mL penicillin and streptomycin). A Tecan D300e digital dispenser was then used to add compounds to the culture using an 8-point 3-fold serial dilution format. The DMSO concentration was normalized to 0.5% for all treatments. Following compound addition, 50 μL of infection medium containing 160 TCID50 HSV-2 G strain was added to the cells and incubated at 37° C. for 5 days. After the incubation, 10 μL/well of WST-8 chromogenic reagent was added and the plates incubated at 37° C. for 3 hours. Following the incubation, cell viability was quantified by measuring the absorbance at 460 nm and 620 nm using a Tecan Infinite M1000 Pro plate reader.

[1] = Human alphaherpesvirus 2, Vero, 120 h

In the case of Cc1nc(N2CC(C(F)F)CN(c3ccc(-c4cc(F)ccc4F)cc3)C2=O)sc1S(N)(=O)=O (centres unmarked) [Compound 349], the EC50 [1] is reported as < 100 nM.

CN=[S@@](C)(=O)c1sc(N2CCCN(c3ccc(-c4cc(F)ccc4F)cc3)C2=O)nc1C (single isomer, unassigned) [Compound 152] gave an EC50 [1] of 1000 to 5000 nM.

With Cc1nc(N2CCCN(c3ccc(-c4cc(F)cc5cc(C(C)(C)F)sc45)cc3)C2=O)sc1S(N)(=O)=O [Compound 284] the EC50 [1] was 100 to 1000 nM.

In the case of Cc1nc(N2C[C@H](C)CN(c3ccc(-c4ccccc4)cc3)C2=O)sc1S(N)(=O)=O (single isomer, unassigned) [Compound 327], the EC50 [1] is reported as < 100 nM.

With Cc1nc(N2CC3(COC3)CN(c3ccc(-c4cc(F)ccc4F)cc3)C2=O)sc1[S@@](C)(=N)=O (single isomer, unassigned) [Compound 432] the EC50 [1] was < 100 nM.

In the case of COc1c(F)cc(F)cc1-c1ccc(N2C[C@H](C(F)(F)F)CN(c3nc(C)c(S(N)(=O)=O)s3)C2=O)cc1 (single isomer, unassigned) [Compound 374], the EC50 [1] is reported as < 100 nM.

For Cc1nc(N2C[C@@H](C(C)(C)O)CN(c3ccc(-c4cc(F)ccc4F)cc3)C2=O)sc1S(N)(=O)=O (single isomer, unassigned) [Compound 344], the EC50 [1] was < 100 nM.

In the case of COc1ccc(-c2ccc(N3CCCN(c4nc(C)c(S(N)(=O)=O)s4)C3=O)cc2)c2ccn(C)c12 [Compound 296], the EC50 [1] is reported as 100 to 1000 nM.

In the case of Cc1cccc(-c2ccc(N3CCCN(c4nc(C)c(S(N)(=O)=O)s4)C3=O)cc2)c1C [Compound 195], the EC50 [1] is reported as < 100 nM.

For Cc1nc(N2CCCN(c3ccc(-c4ccccc4C(F)(F)F)cc3)C2=O)sc1S(N)(=O)=O [Compound 196], the EC50 [1] was < 100 nM.

In the case of Cc1nc(N2CCCN(c3ccc(-c4cccc5c(C)csc45)cc3)C2=O)sc1S(N)(=O)=O [Compound 275], the EC50 [1] is reported as < 100 nM.

Cc1nc(N2CCCCN(c3ccc(-c4cccc5ncsc45)cc3)C2=O)sc1[S@@](C)(=N)=O (single isomer, unassigned) [Compound 429] was tested, and the EC50 [1] was < 100 nM.

COCCCNS(=O)(=O)c1sc(N2CCCN(c3ccc(-c4cc(F)cc5nsnc45)cc3)C2=O)nc1C [Compound 419] was tested, and the EC50 [1] was < 100 nM.

Cc1nc(N2CC[C@@H](C)N(c3ccc(-c4cc(F)ccc4F)cc3)C2=O)sc1S(N)(=O)=O (single isomer, unassigned) [Compound 333] was tested, and the EC50 [1] was < 100 nM.

With COc1c(F)cc(F)cc1-c1ccc(N2CC(F)(F)CN(c3nc(C)c(S(N)(=O)=O)s3)C2=O)cc1 [Compound 375] the EC50 [1] was < 100 nM.

With Cc1cc(O)cc(-c2ccc(N3CCCN(c4nc(C)c(S(N)(=O)=O)s4)C3=O)cc2)n1 [Compound 238] the EC50 [1] was 1000 to 5000 nM.

With Cc1nc(N2CC(CO)CN(c3ccc(-c4cc(F)ccc4F)cc3)C2=O)sc1S(N)(=O)=O (centres unmarked) [Compound 356] the EC50 [1] was < 100 nM.

For Cc1nc(N2CCCN(c3ccc(-c4cccc(-c5cncs5)c4)cc3)C2=O)sc1S(N)(=O)=O [Compound 31], the EC50 [1] was < 100 nM.

Molecule Cc1nc(N2CCCN(c3ccc(-c4ccc(F)cc4F)cc3)C2=O)sc1S(N)(=O)=O [Compound 187] has an EC50 [1] of 100 to 1000 nM.

Cc1nc(N2C[C@@H](C)CN(c3ccc(-c4ccccc4)cc3)C2=O)sc1S(N)(=O)=O (single isomer, unassigned) [Compound 328] was tested, and the EC50 [1] was < 100 nM.

In the case of Cc1nc(N2CCCN(c3ccc(-c4cc(C(F)(F)F)cc5c4c(CO)cn5C)cc3)C2=O)sc1S(N)(=O)=O [Compound 292], the EC50 [1] is reported as 1000 to 5000 nM.

In the case of Cc1nc(N2CCCN(c3ccc(-c4cccc5c4cnn5S(C)(=O)=O)cc3)C2=O)sc1S(N)(=O)=O [Compound 57], the EC50 [1] is reported as 1000 to 5000 nM.

Cc1nc(N2C[C@H](F)CN(c3ccc(-c4cc(F)ccc4F)cc3)C2=O)sc1S(=O)(=O)NCCO (single isomer, unassigned) [Compound 414] was tested, and the EC50 [1] was < 100 nM.

In the case of Cc1nc(N2CCCN(c3ccc(-c4cc(F)ccc4F)cc3)C2=O)sc1S(=O)(=O)NCC1COC1 [Compound 404], the EC50 [1] is reported as < 100 nM.

In the case of Cc1nc(N2C[C@@H](C)CN(c3ccc(-c4cc(F)ccc4F)cc3)C2=O)sc1S(N)(=O)=O (single isomer, unassigned) [Compound 320], the EC50 [1] is reported as < 100 nM.

In the case of Cc1nc(N2C[C@H](C)CN(c3ccc(-c4ccccc4F)cc3)C2=O)sc1S(N)(=O)=O [Compound 324], the EC50 is reported as < 100 nM.

Cc1cc(Cl)c(F)c(-c2ccc(N3CCCN(c4nc(C)c(S(N)(=O)=O)s4)C3=O)cc2)n1 [Compound 236] was tested, and the EC50 [1] was < 100 nM.

With Cc1nc(N2CCCN(c3ccc(-c4cc(Cl)ccc4F)cc3)C2=O)sc1S(N)(=O)=O [Compound 27] the EC50 [1] was < 100 nM.

CSc1ccc(F)cc1-c1ccc(N2CCCN(c3nc(C)c(S(N)(=O)=O)s3)C2=O)cc1 [Compound 223] was tested, and the EC50 [1] was < 100 nM.

For Cc1nc(N2CCCCN(c3ccc(-c4cccc5ncsc45)cc3)C2=O)sc1[S@](C)(=N)=O (single isomer, unassigned) [Compound 430], the EC50 [1] was < 100 nM.

In the case of Cc1nc(N2CC3(CCCC3)CN(c3ccc(-c4cccc5ncsc45)cc3)C2=O)sc1S(N)(=O)=O [Compound 337], the EC50 [1] is reported as < 100 nM.

With Cc1nc(N2CCCN(c3ccc(-c4cccc5cnsc45)cc3)C2=O)sc1S(N)(=O)=O [Compound 258] the EC50 [1] was < 100 nM.

Cc1nc(N2CCCN(c3ccc(-c4ccccc4OC4CC4)cc3)C2=O)sc1S(N)(=O)=O [Compound 200] was tested, and the EC50 [1] was 100 to 1000 nM.

In the case of Cc1nc(N2CCN(c3ccc(-c4cc(F)cc5nsnc45)cc3)C2=O)sc1S(N)(=O)=O [Compound 314], the EC50 [1] is reported as < 100 nM.

Cc1nc(N2CCCN(c3ccc(-c4cc(F)ccc4-c4cnn(C)c4)cc3)C2=O)sc1S(N)(=O)=O [Compound 207] gave an EC50 [1] of 100 to 1000 nM.

With Cc1nc(N2CCCN(c3ccc(-c4cc(F)ccc4F)cc3)C2=O)sc1S(=O)(=O)NCCCCCCCCCCO [Compound 420] the EC50 [1] was < 100 nM.

In the case of Cc1nc(N2CCCN(c3ccc(-c4cc(F)cc(C(F)F)c4)cc3)C2=O)sc1S(N)(=O)=O [Compound 222], the EC50 [1] is reported as < 100 nM.

In the case of Cc1nc(N2CCCN(c3ccc(-c4cc(C(C)(C)C)ccc4F)cc3)C2=O)sc1S(N)(=O)=O [Compound 204], the EC50 [1] is reported as 1000 to 5000 nM.

With Cc1nc(N2CCCN(c3ccc(-c4cncs4)cc3)C2=O)sc1S(N)(=O)=O [Compound 49] the EC50 [1] was 100 to 1000 nM.

Molecule CN=S(C)(=O)c1sc(N2CCCN(c3ccc(-c4cc(F)ccc4F)cc3)C2=O)nc1C (centres unmarked) [Compound 151] has an EC50 [1] of 100 to 1000 nM.

In the case of Cc1nc(N2CCCN(c3ccc(-c4snc5c(F)cc(F)c(F)c45)cc3)C2=O)sc1S(N)(=O)=O [Compound 308], the EC50 [1] is reported as 100 to 1000 nM.

Cc1nc(N2CCCN(c3ccc(-c4cc(F)ccc4F)c4scnc34)C2=O)sc1S(N)(=O)=O [Compound 311] gave an EC50 [1] of 100 to 1000 nM.

Molecule Cc1nc(N2CC(C(C)(C)O)CN(c3ccc(-c4snc5ccccc45)cc3)C2=O)sc1S(N)(=O)=O (centres unmarked) [Compound 348] has an EC50 [1] of 100 to 1000 nM.

Molecule Cc1nc(N2CCCN(c3ccc(-c4ccccc4F)cc3)C2=O)sc1S(C)(=N)=O (centres unmarked) [Compound 142] has an EC50 [1] of 100 to 1000 nM.

For Cc1nc(N2CC(C(F)(F)F)CN(c3ccc(-c4cc(F)ccc4F)cc3)C2=O)sc1S(N)(=O)=O (centres unmarked) [Compound 368], the EC50 [1] was < 100 nM.

In the case of Cc1nc(N2C[C@H](C(F)F)CN(c3ccc(-c4cc(F)ccc4F)cc3)C2=O)sc1S(N)(=O)=O (single isomer, unassigned) [Compound 350], the EC50 [1] is reported as < 100 nM.

In the case of Cc1nc(N2CCCN(c3ccc(-c4cc(Cl)cc(F)c4F)cc3)C2=O)sc1S(N)(=O)=O [Compound 214], the EC50 [1] is reported as < 100 nM.

Cc1nc(N2CCCN(c3ccc(-c4cc(F)cc5c(C)c(C(C)(C)O)sc45)cc3)C2=O)sc1S(N)(=O)=O [Compound 282] was tested, and the EC50 [1] was 100 to 1000 nM.

For CONS(=O)(=O)c1sc(N2CCCN(c3ccc(-c4cc(F)ccc4F)cc3)C2=O)nc1C [Compound 386], the EC50 [1] was < 100 nM.

Work on Cc1nc(N2CCCN(c3ccc(-c4cc(F)cc5c(C)c(C#N)sc45)cc3)C2=O)sc1S(N)(=O)=O [Compound 280] yielded an EC50 [1] of 1000 to 5000 nM.

Molecule Cc1nc(N2CCCN(c3ccc(-c4cncc5ncsc45)cc3)C2=O)sc1S(N)(=O)=O [Compound 269] has an EC50 [1] of 100 to 1000 nM.

Cc1nc(N2C[C@H](C(N)=O)CN(c3ccc(-c4cc(F)ccc4F)cc3)C2=O)sc1S(N)(=O)=O (single isomer, unassigned) [Compound 382] showed an EC50 [1] of 100 to 1000 nM.

Cc1nc(N2C[C@@H](F)CN(c3ccc(-c4cc(F)ccc4F)cc3)C2=O)sc1S(=O)(=O)NCCO (single isomer, unassigned) [Compound 415] was tested, and the EC50 [1] was < 100 nM.

Cc1nc(N2CCCN(c3ccc(-c4cc(F)ccc4F)cc3)C2=O)sc1S(=O)(=O)NCCCF [Compound 391] was tested, and the EC50 [1] was < 100 nM.

For Cc1nc(N2CCCN(c3ccc(-c4cc(F)ccc4F)cc3)C2=O)sc1S(=O)(=O)Nc1ccccn1 [Compound 406], the EC50 [1] was < 100 nM.

Cc1nc(N2CCCN(c3ccc(-c4ccccc4C4(C#N)CC4)cc3)C2=O)sc1S(N)(=O)=O [Compound 23] was tested, and the EC50 [1] was 1000 to 5000 nM.

With Cc1nc(N2CCCN(c3ccc(-c4nccc(Cl)c4F)cc3)C2=O)sc1S(N)(=O)=O [Compound 37] the EC50 [1] was 100 to 1000 nM.

With Cc1nc(N2C[C@@H](C(F)(F)F)CN(c3ccc(-c4cc(F)ccc4F)cc3)C2=O)sc1S(N)(=O)=O (single isomer, unassigned) [Compound 371] the EC50 [1] was < 100 nM.

For Cc1nc(N2CCCN(c3ccc(-c4cc(C#N)cc5ncsc45)cc3)C2=O)sc1S(N)(=O)=O [Compound 278], the EC50 [1] was 100 to 1000 nM.

Molecule Cc1nc(N2CCCN(c3ccc(-c4cc(F)cc5cc(C(C)(C)O)sc45)cc3)C2=O)sc1S(N)(=O)=O [Compound 281] has an EC50 [1] of 100 to 1000 nM.

Cc1nc(N2CCCN(c3ccc(-c4cc(C(F)(F)F)ccn4)cc3)C2=O)sc1S(N)(=O)=O [Compound 240] gave an EC50 [1] of 100 to 1000 nM.

Cc1nc(N2CCCN(c3ccc(-c4cccc5sccc45)cc3)C2=O)sc1S(N)(=O)=O [Compound 285] was tested, and the EC50 [1] was < 100 nM.
